Data published in US6492520B1, “Substituted pyrido-or pyrimido-containing 6,6- or 6,7-bicyclic derivatives” (Pfizer Inc, priority 1996, dated 2002).

With `CCC(CC)N1CCNc2c1cc(C)nc2Oc1c(C)cc(C)cc1C` [Example 4, 1-(1-Ethyl-propyl)-7-methyl-5-(2,4,6-trimethyl-phenoxy)-1,2,3,4-tetrahydro-pyrido[3,4-b]pyrazine] the melting point was 138 to 140 °C.
